Test results: US20080050354A1, “PROTECTING BIOACTIVE FOOD INGREDIENTS USING MICROORGANISMS HAVING REDUCED METABOLIZING CAPACITY” (COMPAGNIE GERVAIS DANONE, priority 2004, published 2008)
Entries after “also recorded” stand apart in the source; their conditions may differ. Like-named read-outs stand apart in the source and are kept apart here. Residues, ends and D or L forms follow the SMILES beside them.

Tests used:
[1] = tested on: mouse peritoneal macrophages; details: in vitro; cited from earlier work
[2] = cited from earlier work
pathogenic strains [3] = details: in vitro; cited from earlier work
Staphylococcus aureus [4] = details: Mice, IM injection; cited from earlier work
Staphylococcus aureus [5] = details: sheep, IM injection; cited from earlier work
small intestine motility = details: 10 g/300 ml water via intragastric probe; cancelled with naloxone; cited from earlier work
pathogenic strains [6] = details: in vitro; cited from earlier work; remark: listed apart in the source
platelet aggregation = details: in vitro; cited from earlier work
[7] = Storage of fermented product thermized at 75° C. for 1 minute; details: thermized 75° C., about 1 minute
Description: FIG. 5: Curves illustrating the change in the residual content of bioactive peptide αS1 [91-100], added after fermentation in a fermented product and then thermized at 75° C. for 1 minute, and stored at 10° C. up to the expiry date.
(FIG. 5), but at the expense of the overall quality of the finished product. Specifically, this solution has many drawbacks: • the thermization of a fermented dairy mass entails the use of stabilizers added before the heat treatment (pectins, starches, carrageenans, etc.), which complicates the process and substantially increases the cost of the formula; • the industrial manufacturing line is more complex and requires a larger specific investment; • the product no longer benefits from appellations associated with products containing live ferments (such as yogurt) and as a result loses the benefits associated with the consumption of lactic ferments; • the organoleptic impact (generally negative) is substantial.

191-193 casein: Bovine β-casein fragment 191-193 (LLY; UniProt P02666 206-208, looked up, fragment)
effect on mouse peritoneal macrophages [1]: Stimulation of mouse
in vivo protection [2]: No in vivo protection

CC[C@H](C)[C@H](NC(=O)[C@@H]1CCCN1C(=O)[C@H](Cc1cnc[nH]1)NC(=O)[C@H](CCCCN)NC(=O)[C@@H]1CCCN1C(=O)[C@@H](N)CCCNC(=N)N)C(=O)N[C@@H](CCCCN)C(=O)N[C@@H](Cc1cnc[nH]1)C(=O)N[C@@H](CCC(N)=O)C(=O)NCC(=O)N[C@@H](CC(C)C)C(=O)N1CCC[C@H]1C(=O)N[C@@H](CCC(N)=O)C(=O)N[C@@H](CCC(=O)O)C(=O)N[C@H](C(=O)N[C@@H](CC(C)C)C(=O)N[C@@H](CC(N)=O)C(=O)N[C@@H](CCC(=O)O)C(=O)N[C@@H](CC(N)=O)C(=O)N[C@@H](CC(C)C)C(=O)N[C@@H](CC(C)C)C(=O)N[C@@H](CCCNC(=N)N)C(=O)N[C@@H](Cc1ccccc1)C(=O)O)C(C)C [isracidin] (H-RPKHPIKHQGLPQEVLNENLLRF-OH)
growth of pathogenic strains (pathogenic strains [3]): Inhibition of growth
efficacy against Staphylococcus aureus (Staphylococcus aureus [4]): Mice, sheep: effective in IM
efficacy against Staphylococcus aureus (Staphylococcus aureus [5]): Mice, sheep: effective in IM

Casein
small intestine motility (small intestine motility): intragastric probe: inhibition

Lactoferricin
growth of pathogenic strains (pathogenic strains [6]): Inhibition of growth

Peptide 106-116 of bovine κ-casein: Peptide 106-116 of bovine κ-casein (MAIPPKKNQDK; UniProt P02668 127-137, looked up, fragment)
platelet aggregation (platelet aggregation): Inhibition of

peptide αS1 [91-100]: fragment 91-100 of casein αS1; peptide with relaxing properties contained in the milk protein hydrolyzate Lactium® (Ingredia) (YLGYLEQLLR; UniProt P02662 106-115, looked up, fragment)
stability of the peptide after heat treatment of the fermented product [7]: possible to ensure the stability; also recorded: possible to preserve
